This passage reports EC50 results from US11976064B2, “Toll-like receptor agonists” (Pfizer Inc., priority 2019, dated 2024).

The target in this test is T1, human toll like receptor 8 (hTLR8) (Homo sapiens, UniProt Q9NR97).
T1 construct: host or cells: HEK293 (HEK-Blue hTLR8)
T1 sequence (Q9NR97 27-1041): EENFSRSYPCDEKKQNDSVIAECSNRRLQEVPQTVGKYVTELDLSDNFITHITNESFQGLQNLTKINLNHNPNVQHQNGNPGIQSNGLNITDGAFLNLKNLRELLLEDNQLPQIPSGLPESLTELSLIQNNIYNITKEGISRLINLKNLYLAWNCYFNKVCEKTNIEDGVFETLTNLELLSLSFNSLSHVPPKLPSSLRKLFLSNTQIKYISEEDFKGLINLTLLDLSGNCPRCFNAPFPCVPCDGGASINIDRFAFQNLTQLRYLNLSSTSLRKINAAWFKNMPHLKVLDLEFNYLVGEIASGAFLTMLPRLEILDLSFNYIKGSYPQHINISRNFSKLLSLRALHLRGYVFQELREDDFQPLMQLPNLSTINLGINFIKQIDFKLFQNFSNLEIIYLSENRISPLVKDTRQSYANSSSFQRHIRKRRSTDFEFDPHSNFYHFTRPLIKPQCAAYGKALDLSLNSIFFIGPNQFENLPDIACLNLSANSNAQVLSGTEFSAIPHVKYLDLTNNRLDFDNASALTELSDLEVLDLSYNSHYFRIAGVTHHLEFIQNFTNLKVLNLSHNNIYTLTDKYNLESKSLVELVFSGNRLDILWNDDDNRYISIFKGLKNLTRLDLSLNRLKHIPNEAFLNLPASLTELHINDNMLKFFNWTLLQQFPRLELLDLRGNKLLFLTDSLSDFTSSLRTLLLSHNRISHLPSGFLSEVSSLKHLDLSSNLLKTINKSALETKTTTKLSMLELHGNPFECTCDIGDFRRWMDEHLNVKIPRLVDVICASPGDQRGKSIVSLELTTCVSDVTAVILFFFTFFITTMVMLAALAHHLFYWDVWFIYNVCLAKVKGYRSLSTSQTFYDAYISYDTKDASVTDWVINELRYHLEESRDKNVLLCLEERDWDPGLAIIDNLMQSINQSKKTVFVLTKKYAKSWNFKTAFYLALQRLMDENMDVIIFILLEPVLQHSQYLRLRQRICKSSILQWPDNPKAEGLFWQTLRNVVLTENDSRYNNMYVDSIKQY
As to the kind of experiment: hTLR8 cell functional assay (HEK-Blue hTLR8 SEAP reporter). Conditions: HEK293 cells stably overexpressing hTLR8, SEAP reporter; geometric mean when tested more than once. The format is cell-based. How it is done:
The Examples described were tested for biological activity in functional cellular assays using HEK293 cells stably overexpressing human TLR7 or TLR8. The assays tested for the ability of each Example to stimulate secretion of interferon alpha (IFNα) in human primary blood mono nuclear cells (PBMC).
To determine the ability of each Example to activate the human toll like receptor 7 (hTLR7) or human toll like receptor 8 (hTLR8), cell-based reporter systems were utilized. HEK293 cells stably overexpressing either hTLR7 or hTLR8 along with a reporter gene containing an optimized secreted embryonic alkaline phosphatase gene (SEAP), under the control of the IFN-b minimal promoter fused to five NF-κB and AP-1-binding sites, were obtained from Invivogen (HEK-Blue™ hTLR7, cat #Hkb-ht1r7; HEK-Blue™ hTLR8, cat #Hkb-ht1r8). Stimulation of hTLR7 or hTLR8 in these cells activates NF-κB and AP-1 and induces the production of SEAP which can be quantified using an alkaline phosphatase detection reagent.
Cells were maintained in Dulbecco's Modified Eagle Media (DMEM) (containing Fetal Bovine Serum (FBS) heat inactivated (10%), Glutamax (2 mM), Penicillin/Streptomycin, Blasticidin (10 μg/ml), Zeocin (100 μg/ml) and Normocin (100 μg/ml)). On day one of the assay, Examples were prepared using 11-point half-log serial dilutions from a 10mM DMSO stock solution and 50 nl was spotted into 384-well Viewplates (PerkinElmer, cat #6007480). Positive control TLR7/8 agonist and negative control (DMSO, no Example) were also spotted within the assay plate and were used to determine percent effect during the analysis process. After resuspension in DMEM assay media containing FBS heat inactivated (10%), Glutamax (2 mM) and Penicillin/Streptomycin, 10,000 cells/20 μl/well were added to previously prepared plates. Plates were incubated overnight (16-20 hrs) at 37° C. in a 5% CO2 environment. Prewetted Microclime lids (Labcyte, LLS-0310) were used to prevent evaporation. On day two of the assay, QUANTI-Blue™ detection reagent was prepared by reconstituting QUANTI-Blue™ powder (InvivoGen, Rep-qb1) with 100 ml of sterile water and allowed to equilibrate to 37° C. for 15 minutes. 20 μl of QUANTI-Blue™ detection reagent was added to each well and plates were incubated at room temperature for 180 min. At the end of the incubation, plates were read on an Envision (Perkin Elmer) plate reader capturing absorbance at 650 nm.
Using Positive (TLR7/8 agonist) and Negative (DMSO) controls, the percent (%) effect was calculated for each Example using the following equation: effect=100−[100*{(Example−Positive Control)/(Negative Control−Positive Control)}]
The % effect at each concentration of each Example was calculated utilizing the ABase software suite (IBDS) and was relative to the amount of SEAP produced in the positive and negative control wells contained within each assay plate. The concentrations and % effect values for each Example were fit using a 4-parameter logistic model in ABase and the concentration of each Example that produced 50% response (EC50) was calculated.
In the case of `CCOCc1nc2c(N)nc(C)c(C)c2n1CC(C)(CO)COC` (single isomer, unassigned) [Example 6, 3-(4-amino-2-(ethoxymethyl)-6,7-dimethyl-1H-imidazo[4,5-c]pyridin-1-yl)-2-(methoxymethyl)-2-methylpropan-1-ol], the EC50 is 6400 nM.

Compound `CCOCc1nc2c(N)nc(C)c(C)c2n1CC(C)(CO)COC` (single isomer, unassigned) [Example 7, 3-(4-amino-2-(ethoxymethyl)-6,7-dimethyl-1H-imidazo[4,5-c]pyridin-1-yl)-2-(methoxymethyl)-2-methylpropan-1-ol] came in with an EC50 of 16500 nM. The result for `CCOCc1nc2c(N)nc(C)c(C)c2n1CC(CO)CO` [Example 1, 2-((4-amino-2-(ethoxymethyl)-6,7-dimethyl-1H-imidazo[4,5-c]pyridin-1-yl)methyl)propane-1,3-diol] reads 2550 nM; that for `CCOCc1nc2c(N)nc(C)c(C)c2n1CC(C)(CO)CO` [Example 2, 2-((4-amino-2-(ethoxymethyl)-6,7-dimethyl-1H-imidazo[4,5-c]pyridin-1-yl)methyl)-2-methylpropane-1,3-diol], 811 nM. Compound `CCOCc1nc2c(N)nc3ccccc3c2n1CC(C)(CO)CO` [Example 3, 2-((4-amino-2-(ethoxymethyl)-1H-imidazo[4,5-c]quinolin-1-yl)methyl)-2-methylpropane-1,3-diol] displayed an EC50 of 194 nM. In the case of `Cc1nc(N)c2nc(CC(F)(F)F)n(CC(C)(CO)CO)c2c1C` [Example 8, 2-((4-amino-6,7-dimethyl-2-(2,2,2-trifluoroethyl)-1H-imidazo[4,5-c]pyridin-1-yl)methyl)-2-methylpropane-1,3-diol], a half-maximal response (EC50) required 8020 nM. As for `CCOCc1nc2c(N)nc(C)c(C)c2n1CC(CC)(CO)CO` [Example 9, 2-((4-amino-2-(ethoxymethyl)-6,7-dimethyl-1H-imidazo[4,5-c]pyridin-1-yl)methyl)-2-ethylpropane-1,3-diol], the figure is 1440 nM; as for `CCCCc1nc2c(N)nc3ccccc3c2n1CC(C)(CO)CO` [Example 10, 2-((4-amino-2-butyl-1H-imidazo[4,5-c]quinolin-1-yl)methyl)-2-methylpropane-1,3-diol], 92 nM; as for `CCCCc1nc2c(N)nc3c(c2n1CC(C)(CO)CO)CCCC3` [Example 13, 2-((4-amino-2-butyl-6,7,8,9-tetrahydro-1H-imidazo[4,5-c]quinolin-1-yl)methyl)-2-methylpropane-1,3-diol], 104 nM.

`CCCCc1nc2c(N)nc3c(c2n1CC(C)(CO)CO)CCC3` [Example 14, 2-((4-amino-2-butyl-7,8-dihydrocyclopenta[b]imidazo[4,5-d]pyridin-1(6H)-yl)methyl)-2-methylpropane-1,3-diol] came in with a half-maximal effective concentration (EC50) of 247 nM. Compound `CCc1nc2c(N)nc3ccccc3c2n1CC(C)(CO)CO` [Example 15, 2-((4-amino-2-ethyl-1H-imidazo[4,5-c]quinolin-1-yl)methyl)-2-methylpropane-1,3-diol] displayed an EC50 of 613 nM.

The compound `CCCc1nc2c(N)nc3ccccc3c2n1CC(C)(CO)CO` [Example 16, 2-((4-amino-2-propyl-1H-imidazo[4,5-c]quinolin-1-yl)methyl)-2-methylpropane-1,3-diol] registered an EC50 of 325 nM.

The term EC50 denotes the midpoint of the concentration-response curve. Low values mean a more potent agent, high ones a less potent agent.
